The target of assay [1] is human GLP-1 receptor (Homo sapiens, UniProt P43220). Kind of assay: Functional GLP-1 receptor assay, in vitro potency (CRE luciferase; whole cells). Format: cell-based. The following applies: BHK cells expressing human GLP-1 receptor.
Assay [2] addresses human GLP-1 receptor (human, UniProt P43220). Kind of assay: cell-based or functional assay.
Where [3] appears, read: 0% HSA, read-out: GLP1R CRE luc 0% HSA EC50 Mean Value.
Setting [4] is: GLP1R CRE luc 1% HSA EC50 Mean Value, 1% HSA.

Like-named read-outs stand apart in the source and are kept apart here. Where a SMILES comes first, the peptide text is derived from it. Where no end group is shown, it is not given here. [ ]: non-standard residue; d: D form. Aib = CC(C)(N)C(=O)O

Sequence of human GLP-1 receptor (Homo sapiens, UniProt P43220) (P43220 24-463): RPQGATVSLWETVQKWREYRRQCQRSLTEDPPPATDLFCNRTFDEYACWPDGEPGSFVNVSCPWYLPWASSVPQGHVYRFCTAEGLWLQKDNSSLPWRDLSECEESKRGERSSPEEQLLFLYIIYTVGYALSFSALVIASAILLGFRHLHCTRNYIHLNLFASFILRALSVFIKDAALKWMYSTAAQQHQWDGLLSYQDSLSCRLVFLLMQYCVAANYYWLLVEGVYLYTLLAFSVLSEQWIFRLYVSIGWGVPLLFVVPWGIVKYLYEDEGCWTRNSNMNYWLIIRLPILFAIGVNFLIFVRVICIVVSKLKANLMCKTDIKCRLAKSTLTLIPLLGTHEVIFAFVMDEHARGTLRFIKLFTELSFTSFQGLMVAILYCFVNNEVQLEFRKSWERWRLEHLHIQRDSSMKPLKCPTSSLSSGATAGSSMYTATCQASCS

In the case of “HAEGTFTSDVSSYLEEEAVKEFIAWLVEKVKEF-NH2 [Compound 132, [Glu22,Glu23,Val25,Glu34,Lys35,Val36,Lys37]-GLP-1-(7-37)-peptidyl-Glu-Phe amide]”, the EC50 at human GLP-1 receptor [1] (setting [3]) was 0.02 nM; at human GLP-1 receptor [1] (setting [4]), 0.01 nM.
Molecule “H-HAEGTFTSDVSSYLEGQAAKEFIAWLVEGVKEFLEK-OH [Compound 127, [Glu34,Val36,Lys37]-GLP-1-(7-37)-peptidyl-Glu-Phe-Leu-Glu-Lys]” returned an EC50 at human GLP-1 receptor [1] (setting [4]) of 0.023 nM.
Consider “HAEGTFTSDVSSYLEGQAAKEFIAWLVEKVKEFLE-NH2 [Compound 106, [Glu34,Lys35,Val36,Lys37]-GLP-1-(7-37)-peptidyl-Glu-Phe-Leu-Glu amide]”, for which the EC50 on human GLP-1 receptor [1] (setting [3]) is 0.114 nM; on human GLP-1 receptor [1] (setting [4]), 0.028 nM.
Turning to “HAEGTFTSDVSSYLEGQAAKEFIAWLVEKVKEF-NH2 [Compound 122, [Glu34,Lys35,Val36,Lys37]-GLP-1-(7-37)-peptidyl-Glu-Phe amide]”, the figures for the EC50 at human GLP-1 receptor [1] (setting [3]) and on human GLP-1 receptor [1] (setting [4]) were 0.016 nM and 0.005 nM, respectively.
Consider “HGEGTFTSDVSSYLEEEAVKEFIAWLVEKVKEF-NH2 [Compound 133, [Gly8,Glu22,Glu23,Val25,Glu34,Lys35,Val36,Lys37]-GLP-1-(7-37)-peptidyl-Glu-Phe amide]”, for which the EC50 on human GLP-1 receptor [1] (setting [3]) came to 0.104 nM.
For the molecule `CC[C@H](C)[C@H](NC(=O)[C@H](Cc1ccccc1)NC(=O)[C@H](CCC(=O)O)NC(=O)[C@H](CCCCN)NC(=O)[C@@H](NC(=O)[C@H](C)NC(=O)[C@H](CCC(=O)O)NC(=O)CNC(=O)[C@H](CCC(=O)O)NC(=O)[C@H](Cc1ccc(O)cc1)NC(=O)[C@H](Cc1ccc(O)cc1)NC(=O)[C@H](CO)NC(=O)[C@H](CO)NC(=O)[C@@H](NC(=O)[C@H](CC(=O)O)NC(=O)[C@H](Cc1c[nH]cn1)NC(=O)[C@@H](NC(=O)[C@H](Cc1ccccc1)NC(=O)[C@@H](NC(=O)CNC(=O)[C@H](CCC(=O)O)NC(=O)[C@H](C)NC(=O)[C@@H](N)Cc1c[nH]cn1)[C@@H](C)O)[C@@H](C)O)C(C)C)C(C)C)C(=O)N[C@@H](C)C(=O)N[C@@H](Cc1c[nH]c2ccccc12)C(=O)N[C@@H](CC(C)C)C(=O)N[C@H](C(=O)N[C@@H](CCC(=O)O)C(=O)N[C@@H](CCCCN)C(=O)NC(C)(C)C(=O)N[C@@H](CCCCN)C(=O)N[C@@H](CCC(=O)O)C(=O)N[C@@H](Cc1ccccc1)C(=O)N[C@@H](CC(C)C)C(N)=O)C(C)C` [Compound 15, [His4,Tyr20,Glu23,Val25,Glu34,Lys35,Aib36,Lys37]-GLP-1-(7-37)-peptidyl-Glu-Phe-Leu amide] (H-HAEGTFTHDVSSYYEGEAVKEFIAWLVEK[Aib]KEFL-NH2; N-terminus assumed), a half-maximal effect on human GLP-1 receptor [1] (setting [4]) (EC50) was put at 0.101 nM.
Regarding `CC[C@H](C)[C@H](NC(=O)[C@H](Cc1ccccc1)NC(=O)[C@H](CCC(=O)O)NC(=O)[C@H](CCCCN)NC(=O)[C@H](C)NC(=O)[C@H](CCCCN)NC(=O)[C@H](CCCCN)NC(=O)[C@H](CCC(=O)O)NC(=O)[C@H](CCC(=O)O)NC(=O)[C@H](CC(C)C)NC(=O)[C@H](Cc1ccc(O)cc1)NC(=O)[C@H](CCCCN)NC(=O)[C@H](CO)NC(=O)[C@H](Cc1ccc(O)cc1)NC(=O)[C@H](CC(=O)O)NC(=O)[C@H](CO)NC(=O)[C@@H](NC(=O)[C@H](Cc1ccccc1)NC(=O)[C@@H](NC(=O)CNC(=O)[C@H](CCC(N)=O)NC(=O)[C@H](CO)NC(=O)[C@@H](N)Cc1c[nH]cn1)[C@@H](C)O)[C@@H](C)O)C(=O)N[C@@H](C)C(=O)N[C@@H](Cc1c[nH]c2ccccc12)C(=O)N[C@@H](CC(C)C)C(=O)N[C@@H](CC(C)C)C(=O)N[C@@H](CCC(=O)O)C(=O)N[C@@H](CCCCN)C(=O)NC(C)(C)C(=O)N[C@@H](CCCCN)C(=O)N[C@@H](CCC(=O)O)C(=O)N[C@@H](Cc1ccccc1)C(=O)N[C@@H](CC(C)C)C(N)=O` [Compound 58] (H-HSQGTFTSDYSKYLEEKKAKEFIAWLLEK[Aib]KEFL-NH2), the EC50 at human GLP-1 receptor [1] (setting [3]) worked out at 1.17 nM; on human GLP-1 receptor [1] (setting [4]) it was 0.588 nM.

B1: [Aib8,Glu34,Lys35,Aib36,Lys37]-GLP-1-(7-37)-peptidyl-Glu-Phe-Leu amide (peptide)
peptide: H[Aib]EGTFTSDVSSYLEGQAAKEFIAWLVEK[Aib]KEFL-NH2
modifications: N-terminus assumed
SMILES: CC[C@H](C)[C@H](NC(=O)[C@H](Cc1ccccc1)NC(=O)[C@H](CCC(=O)O)NC(=O)[C@H](CCCCN)NC(=O)[C@H](C)NC(=O)[C@H](C)NC(=O)[C@H](CCC(N)=O)NC(=O)CNC(=O)[C@H](CCC(=O)O)NC(=O)[C@H](CC(C)C)NC(=O)[C@H](Cc1ccc(O)cc1)NC(=O)[C@H](CO)NC(=O)[C@H](CO)NC(=O)[C@@H](NC(=O)[C@H](CC(=O)O)NC(=O)[C@H](CO)NC(=O)[C@@H](NC(=O)[C@H](Cc1ccccc1)NC(=O)[C@@H](NC(=O)CNC(=O)[C@H](CCC(=O)O)NC(=O)C(C)(C)NC(=O)[C@@H](N)Cc1c[nH]cn1)[C@@H](C)O)[C@@H](C)O)C(C)C)C(=O)N[C@@H](C)C(=O)N[C@@H](Cc1c[nH]c2ccccc12)C(=O)N[C@@H](CC(C)C)C(=O)N[C@H](C(=O)N[C@@H](CCC(=O)O)C(=O)N[C@@H](CCCCN)C(=O)NC(C)(C)C(=O)N[C@@H](CCCCN)C(=O)N[C@@H](CCC(=O)O)C(=O)N[C@@H](Cc1ccccc1)C(=O)N[C@@H](CC(C)C)C(N)=O)C(C)C
Regarding B1, in the assay with human GLP-1 receptor [2], the “CRE luciferase EC50, 0% HSA” value was 0.108 nM and the “CRE luciferase EC50, 1% HSA” value was 0.042 nM.

B2: [Aib8,Glu23,Val25,Arg26,Glu34,Arg35,Aib36,Arg37]-GLP-1-(7-37)-peptidyl-Glu-Phe-Leu amide (peptide)
peptide: H[Aib]EGTFTSDVSSYLEGEAVREFIAWLVER[Aib]REFL-NH2
modifications: N-terminus assumed
SMILES: CC[C@H](C)[C@H](NC(=O)[C@H](Cc1ccccc1)NC(=O)[C@H](CCC(=O)O)NC(=O)[C@H](CCCNC(=N)N)NC(=O)[C@@H](NC(=O)[C@H](C)NC(=O)[C@H](CCC(=O)O)NC(=O)CNC(=O)[C@H](CCC(=O)O)NC(=O)[C@H](CC(C)C)NC(=O)[C@H](Cc1ccc(O)cc1)NC(=O)[C@H](CO)NC(=O)[C@H](CO)NC(=O)[C@@H](NC(=O)[C@H](CC(=O)O)NC(=O)[C@H](CO)NC(=O)[C@@H](NC(=O)[C@H](Cc1ccccc1)NC(=O)[C@@H](NC(=O)CNC(=O)[C@H](CCC(=O)O)NC(=O)C(C)(C)NC(=O)[C@@H](N)Cc1c[nH]cn1)[C@@H](C)O)[C@@H](C)O)C(C)C)C(C)C)C(=O)N[C@@H](C)C(=O)N[C@@H](Cc1c[nH]c2ccccc12)C(=O)N[C@@H](CC(C)C)C(=O)N[C@H](C(=O)N[C@@H](CCC(=O)O)C(=O)N[C@@H](CCCNC(=N)N)C(=O)NC(C)(C)C(=O)N[C@@H](CCCNC(=N)N)C(=O)N[C@@H](CCC(=O)O)C(=O)N[C@@H](Cc1ccccc1)C(=O)N[C@@H](CC(C)C)C(N)=O)C(C)C
Turning to B2, in the assay with human GLP-1 receptor [2], the “CRE luciferase EC50, 0% HSA” value was found to be 0.086 nM and the “CRE luciferase EC50, 1% HSA” value came to 0.041 nM.

B3: [Aib8,Glu23,Val25,Glu34,Lys35,Phe36,Lys37]-GLP-1-(7-37)-peptidyl-Glu-Ala-Phe amide (peptide)
peptide: H[Aib]EGTFTSDVSSYLEGEAVKEFIAWLVEKFKEAF-NH2
modifications: N-terminus assumed
SMILES: CC[C@H](C)[C@H](NC(=O)[C@H](Cc1ccccc1)NC(=O)[C@H](CCC(=O)O)NC(=O)[C@H](CCCCN)NC(=O)[C@@H](NC(=O)[C@H](C)NC(=O)[C@H](CCC(=O)O)NC(=O)CNC(=O)[C@H](CCC(=O)O)NC(=O)[C@H](CC(C)C)NC(=O)[C@H](Cc1ccc(O)cc1)NC(=O)[C@H](CO)NC(=O)[C@H](CO)NC(=O)[C@@H](NC(=O)[C@H](CC(=O)O)NC(=O)[C@H](CO)NC(=O)[C@@H](NC(=O)[C@H](Cc1ccccc1)NC(=O)[C@@H](NC(=O)CNC(=O)[C@H](CCC(=O)O)NC(=O)C(C)(C)NC(=O)[C@@H](N)Cc1c[nH]cn1)[C@@H](C)O)[C@@H](C)O)C(C)C)C(C)C)C(=O)N[C@@H](C)C(=O)N[C@@H](Cc1c[nH]c2ccccc12)C(=O)N[C@@H](CC(C)C)C(=O)N[C@H](C(=O)N[C@@H](CCC(=O)O)C(=O)N[C@@H](CCCCN)C(=O)N[C@@H](Cc1ccccc1)C(=O)N[C@@H](CCCCN)C(=O)N[C@@H](CCC(=O)O)C(=O)N[C@@H](C)C(=O)N[C@@H](Cc1ccccc1)C(N)=O)C(C)C
As to B3, in the assay with human GLP-1 receptor [2], the “CRE luciferase EC50, 0% HSA” value was 0.372 nM and the “CRE luciferase EC50, 1% HSA” value amounted to 0.115 nM.

B4: [Asn14,Met16,Thr17,Asn18,Glu23,Val25,Glu34,Lys35,Aib36,Lys37]-GLP-1-(7-37)-peptidyl-Glu-Phe-Leu amide (peptide)
peptide: HAEGTFTNDMTNYLEGEAVKEFIAWLVEK[Aib]KEFL-NH2
modifications: N-terminus assumed
SMILES: CC[C@H](C)[C@H](NC(=O)[C@H](Cc1ccccc1)NC(=O)[C@H](CCC(=O)O)NC(=O)[C@H](CCCCN)NC(=O)[C@@H](NC(=O)[C@H](C)NC(=O)[C@H](CCC(=O)O)NC(=O)CNC(=O)[C@H](CCC(=O)O)NC(=O)[C@H](CC(C)C)NC(=O)[C@H](Cc1ccc(O)cc1)NC(=O)[C@H](CC(N)=O)NC(=O)[C@@H](NC(=O)[C@H](CCSC)NC(=O)[C@H](CC(=O)O)NC(=O)[C@H](CC(N)=O)NC(=O)[C@@H](NC(=O)[C@H](Cc1ccccc1)NC(=O)[C@@H](NC(=O)CNC(=O)[C@H](CCC(=O)O)NC(=O)[C@H](C)NC(=O)[C@@H](N)Cc1c[nH]cn1)[C@@H](C)O)[C@@H](C)O)[C@@H](C)O)C(C)C)C(=O)N[C@@H](C)C(=O)N[C@@H](Cc1c[nH]c2ccccc12)C(=O)N[C@@H](CC(C)C)C(=O)N[C@H](C(=O)N[C@@H](CCC(=O)O)C(=O)N[C@@H](CCCCN)C(=O)NC(C)(C)C(=O)N[C@@H](CCCCN)C(=O)N[C@@H](CCC(=O)O)C(=O)N[C@@H](Cc1ccccc1)C(=O)N[C@@H](CC(C)C)C(N)=O)C(C)C
On to B4, for which, in the assay with human GLP-1 receptor [2], the “CRE luciferase EC50, 0% HSA” value was found to be 0.186 nM and the “CRE luciferase EC50, 1% HSA” value amounted to 0.077 nM.

Usually EC50 stands for the concentration at which the effect is half-maximal.

Values taken from patent US20150344540A1, “NOVEL GLP-1 RECEPTOR AGONISTS WITH CHOLESTEROL EFFLUX ACTIVITY” (NOVO NORDISK A/S, priority 2012, published 2015).
